Laboratory results taken from PubChem BioAssay AID1919015 (Molecular Pharmacology Branch, DTP, NCI, 2023).

Test system: OVCAR-5 complex spheroids with HUVEC/MSC, viability, % test/control
Test: Anticancer human tumor OVCAR-5 cell line growth inhibition [AhR];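 note: spheroids exposed to compounds for 7 days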;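 for viability, T/C: 100% = DMSO vehicle control wells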
Conditions: for IC50: curve of first compound; for viability, T/C: stronger effect = lower value
How it was run: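 Agents were dosed in half-log steps down from roughly clinical Cmax, or from 10 microM where Cmax was unknown, alone and with AhR antagonists. Read-out: percent test/control growth of tumor spheroids containing HUVEC and MSC stromal cells.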

CC(C)c1c(-c2ccccc2)nc2c(C#N)c[nH]n2c1=O + Cc1cncc(-c2nc(NCCc3c[nH]c4ccccc34)c3ncn(C(C)C)c3n2)c1
IC50 (second compound 0.1 µM): > 10 µM | IC50 (second compound 0.316 µM): > 10 µM | IC50 (second compound 1 µM): > 10 µM | IC50 (second compound 3.16 µM): > 10 µM | IC50 (second compound 10 µM): < 0.0316 µM | viability, T/C (second compound 0.1 µM, first compound 0.0316 µM): 100% | viability, T/C (second compound 0.1 µM, first compound 0.1 µM): 99.5% | viability, T/C (second compound 0.1 µM, first compound 0.316 µM): 100% | viability, T/C (second compound 0.1 µM, first compound 1 µM): 100% | viability, T/C (second compound 0.1 µM, first compound 3.16 µM): 96.4% | viability, T/C (second compound 0.1 µM, first compound 10 µM): 106% | viability, T/C (second compound 0.316 µM, first compound 0.0316 µM): 101% | viability, T/C (second compound 0.316 µM, first compound 0.1 µM): 103% | viability, T/C (second compound 0.316 µM, first compound 0.316 µM): 98.5% | viability, T/C (second compound 0.316 µM, first compound 1 µM): 102% | viability, T/C (second compound 0.316 µM, first compound 3.16 µM): 95.2% | viability, T/C (second compound 0.316 µM, first compound 10 µM): 106% | viability, T/C (second compound 1 µM, first compound 0.0316 µM): 96.8% | viability, T/C (second compound 1 µM, first compound 0.1 µM): 99.1% | viability, T/C (second compound 1 µM, first compound 0.316 µM): 100% | viability, T/C (second compound 1 µM, first compound 1 µM): 94.1% | viability, T/C (second compound 1 µM, first compound 3.16 µM): 94.8% | viability, T/C (second compound 1 µM, first compound 10 µM): 103% | viability, T/C (second compound 3.16 µM, first compound 0.0316 µM): 81.5% | viability, T/C (second compound 3.16 µM, first compound 0.1 µM): 84.1% | viability, T/C (second compound 3.16 µM, first compound 0.316 µM): 86.1% | viability, T/C (second compound 3.16 µM, first compound 1 µM): 83.6% | viability, T/C (second compound 3.16 µM, first compound 3.16 µM): 90.1% | viability, T/C (second compound 3.16 µM, first compound 10 µM): 88.7% | viability, T/C (second compound 10 µM, first compound 0.0316 µM): 14.2% | viability, T/C (second compound 10 µM, first compound 0.1 µM): 14.2% | viability, T/C (second compound 10 µM, first compound 0.316 µM): 17.8% | viability, T/C (second compound 10 µM, first compound 1 µM): 16.3% | viability, T/C (second compound 10 µM, first compound 3.16 µM): 16% | viability, T/C (second compound 10 µM, first compound 10 µM): 25.1%
